Laboratory results: US9920050B2, “Fused heterocyclic compound and pest control use thereof” (Sumitomo Chemical Company, Limited, priority 2013, dated 2018)

Legend:
Assay type in all cases: in vivo
Blattella germanica = assay: Test Example 9: treated filter paper with sucrose bait, Blattella germanica; settings: 500 ppm, 0.7 ml on filter paper, male imagoes, after 6 days
Procedure: The formulations of Compounds of Present Invention 9, 15 to 16, 19, 22, 30 to 32, 34, 41 and 45 to 46 as produced in Formulation Example 5 were diluted with water, so as to have a concentration of the active ingredient of 500 ppm, to prepare each test drug solution.
(§1) A filter paper having a diameter of 5.5 cm was spread on the bottom of a polyethylene cup having the same diameter and 0.7 ml of the test drug solution was added dropwise onto the filter paper, and 30 mg of sucrose was uniformly placed as bait. Into the polyethylene cup, 2 male imagoes of Blattella germanica were released, and the cup was sealed with a lid. After 6 days, the life and death of Blattella germanica was examined, the number of dead insects was counted, and the death rate was calculated according to the following equation. Death rate (%)=(Number of dead insects/Number of tested insects)×100

Musca domestica = assay: Test Example 8: treated filter paper with sucrose bait, Musca domestica; settings: 500 ppm, 0.7 ml on filter paper, female imagoes, after 24 hours
Procedure: The formulations of Compounds of Present Invention 1, 9, 15 to 16, 19, 22, 24, 31 to 32, 34, 41 and 45 to 46 as produced in Formulation Example 5 were diluted with water, so as to have a concentration of the active ingredient of 500 ppm, to prepare each test drug solution.
as §1, with “10 female” for “2 male”, “Musca domestica” for “Blattella germanica”, “24 hours,” for “6 days,”

[1] = tested on: Haemaphysalis longicornis; assay: Test Example 11: coated screw tube contact test, Haemaphysalis longicornis ticks; settings: 2 mg compound coated on inner wall of screw tube, unfed nymphal ticks, after 2 days
Procedure: Two milligrams of each of Compounds of Present Invention 8 to 9, 20, 22 and 31 to 32 was weighed out in a screw tube (Maruemu No. 5; 27×55 mm), and 0.2 mL of acetone was added thereto, and the screw tube was sealed with a cap to dissolve the compound. The screw tube was rotated and inverted to uniformly coat the drug solution onto the whole inner wall of the tube. After removing the cap, the solution was air-dried for about 2 hours, then unfed nymphal ticks, Haemaphysalis longicornis (5 ticks/group) were released, and the tube was sealed with the cap. After 2 days, the number of dead insects was counted, and the death rate was calculated according to the following equation: Death rate (%)=100×(Number of dead insects/Number of tested insects)

SMILES	death rate (Blattella germanica) [%]	death rate (Musca domestica) [%]	death rate [1] [%]
CCS(=O)(=O)c1cc(NC(=O)C(=O)N(C)C)cnc1-c1nc2cc(C(F)(F)F)cnc2n1C [compound 16]	100	100	
CCS(=O)(=O)c1ccc(NOC)nc1-c1nc2cc(C(F)(F)F)cnc2n1C [compound 30]	100		
CCS(=O)(=O)c1cc(NNC(=O)OC)cnc1-c1nc2cc(C(F)(F)F)cnc2n1C [compound 15]	100	100	
CCS(=O)(=O)c1ccc(NC(=O)C2CC2)nc1-c1nc2cc([S+]([O-])C(F)(F)F)ccc2o1 (stereo not drawn) [compound 45]	100	100	
CCS(=O)(=O)c1ccc(NCc2ccc(Cl)nc2)nc1-c1nc2cc([S+]([O-])C(F)(F)F)ccc2o1 (stereo not drawn) [compound 46]	100	100	
CCS(CC)=Nc1ccc(S(=O)(=O)CC)c(-c2nc3cc([S+]([O-])C(F)(F)F)ccc3o2)n1 (stereo not drawn) [compound 41]	100	100	
CCS(=O)(=O)c1cc(NC(=O)C2CCC2)cnc1-c1nc2cc(C(F)(F)F)cnc2n1C [compound 8]			100
CCS(=O)(=O)c1cc(NCC2CCOC2)cnc1-c1nc2cc(C(F)(F)F)cnc2n1C (stereo not drawn) [compound 20]			100
CCS(=O)(=O)c1ccc(NC2CC2)nc1-c1nc2cc([S+]([O-])C(F)(F)F)ccc2o1 (stereo not drawn) [compound 32]	100	100	100
CCS(=O)(=O)c1cc(NC2CC2)cnc1-c1nc2cc(C(F)(F)F)cnc2n1C [compound 9]	100	100	100
CCS(=O)(=O)c1cc(NC(=O)c2ccccn2)cnc1-c1nc2cc(C(F)(F)F)cnc2n1C [compound 24]		100	
CCS(=O)(=O)c1cc(NC(=O)OCc2ccccc2)cnc1-c1nc2cc(C(F)(F)F)cnc2n1C [compound 1]		100	
CCS(=O)(=O)c1cc(NN)cnc1-c1nc2cc(C(F)(F)F)cnc2n1C [compound 19]	100	100	
CCS(=O)(=O)c1ccc(NCc2ccccc2)nc1-c1nc2cc([S+]([O-])C(F)(F)F)ccc2o1 (stereo not drawn) [compound 34]	100	100	
CCS(=O)(=O)c1cc(NC(=O)C2CC2)cnc1-c1nc2cc(C(F)(F)F)cnc2n1C [compound 22]	100	100	100
CCS(=O)(=O)c1ccc(NC2CC2)nc1-c1nc2cc(C(F)(F)F)cnc2n1C [compound 31]		100	100
